{
  "source": "paper PMC12881681",
  "about": "(Molecular Pharmacology, 2025)",
  "key": {"[1]": {"conditions": "clinical phase I study; cited from earlier work"}, "[2]": {"test": "Pharmacokinetics study in mice: erlotinib pretreatment, carbazeran and 4-oxo-carbazeran", "format": "in vivo, BALB/c mice", "conditions": "erlotinib 100 mg/kg p.o.", "description": "BALB/c mice (male, ∼8 weeks old) were purchased and housed at the Biological Resource Centre, Agency for Science, Technology and Research (A∗STAR). The experimental protocol was approved by the A∗STAR Institutional Review Board. […] Blood (12.5 μL) was drawn from the tail vein (with a needle prick) at various times (0.25, 0.5, 0.75, 1, 2, 3, 4, 6, and 8 hours) after carbazeran dosing. The blood samples were diluted 2 times with 12.5 μL of water. Acetonitrile containing the internal standard (carbazeran-d4, 4 nM in 75 μL acetonitrile and 3 nM in final sample volume of 100 μL) was added to the blood samples to precipitate proteins. […] Blank and standard calibration samples were prepared from control mice that were not treated with any chemicals. Pharmacokinetic data were analyzed by noncompartmental analysis using Phoenix WinNonlin 6.3 (Certara).\nAt the end of the last blood collection (8 hour post-carbazeran dosing), the mice were sacrificed. […] The tissue samples were homogenized, and a 12.5 μL aliquot of the homogenate was diluted with an equal volume of water. Acetonitrile containing the internal standard (carbazeran-d4, 4 nM in 75 μL acetonitrile and 3 nM in final sample volume of 100 μL) was added to the diluted tissue samples (25 μL) to precipitate the proteins."}, "[3]": {"design": "method as in PMID 26330331", "conditions": "mice, oral dosing; cited from earlier work"}, "[4]": {"conditions": "ref erlotinib (TARCEVA), package insert, 2016; cited from earlier work"}, "AOX1": {"tested_on": "AOX1", "conditions": "zoniporide as AOX substrate; cited from earlier work"}},
  "data": [
    {"smiles": "C#Cc1cccc(Nc2ncnc3cc(OCCOC)c(OCCOC)cc23)c1", "note": "[Erlotinib]", "values": [
      {"measurement": "effect on plasma concentration of OSI-930", "setting": "[1]", "result": "increase"},
      {"measurement": "concentration of 4-oxo-carbazeran metabolite in liver and kidneys", "setting": "[2]; 8 hours after carbazeran", "result": "decreased the concentration"},
      {"measurement": "concentration of carbazeran in liver and kidneys", "setting": "[2]; 8 hours after carbazeran", "result": "increased the concentration"},
      {"measurement": "concentration of 4-oxo-carbazeran metabolite in blood vs vehicle-treated control", "setting": "[2]; all time points to 8 h", "result": "far lesser concentration"},
      {"measurement": "concentration of carbazeran in blood vs vehicle-treated control", "setting": "[2]; all time points to 8 h", "result": "greater concentration"},
      {"measurement": "elimination half-life", "setting": "[3]", "result": 42, "unit": "min"},
      {"measurement": "Plasma fu", "setting": "[4]", "result": "e Cmax,u = plasma fu × Cmax. Plasma fu = 0.07, based on erlotinib (TARCEVA), package insert, 2016. For O-desmethylerlotinib and O-didesmethylerlotinib, the fu is assumed to be similar to the parent drug."},
      {"measurement": "Ki", "setting": "AOX1", "result": 720, "unit": "nM"}
    ]}
  ]
}
